Laboratory results: ChEMBL document CHEMBL1201862, “PubChem BioAssay data set” (2004)
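In this assay, cells in 96-well plates receive the compound at five concentrations for 48 hours. Endpoints are linearly interpolated between the surrounding concentrations. GI50 is the concentration that inhibits growth by half.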 Activity calls are given as the source filed them. No stated cut-off is given here; in the data, active = GI50 up to about 1.1 µM and inactive = higher.

Legend:
Assay in all cases: NCI tumour cell line growth inhibition, 48 h
[1] = tested on: 786-0
[2] = tested on: HCC 2998
[3] = tested on: HCT-116
[4] = tested on: HCT-15
[5] = tested on: M14
[6] = tested on: MCF7
[7] = tested on: MDA-MB-231
[8] = tested on: MDA-MB-435
[9] = tested on: MDA-N
[10] = tested on: OVCAR-4
[11] = tested on: RPMI-8226
[12] = tested on: SF-539
[13] = tested on: SK-MEL-5
[14] = tested on: SN12C
[15] = tested on: SNB-19
[16] = tested on: SW-620
[17] = tested on: U-251
[18] = tested on: UACC-62

Row | Structure (SMILES) | GI50 [1] | GI50 [2] | GI50 [3] | GI50 [4] [µM] | GI50 [5] | GI50 [6] | GI50 [7] | GI50 [8] | GI50 [9] | GI50 [10] | GI50 [11] | GI50 [12] | GI50 [13] | GI50 [14] | GI50 [15] | GI50 [16] | GI50 [17] | GI50 [18]
1 | COc1cccc(/C=C/C2=NN(c3cccc(S(=O)(=O)O)c3)C3(C2)SCC(=O)N3c2nc3ccccc3s2)c1 (stereo not drawn) | 21 µM (inactive) | 95.1 µM (inactive) | 62.7 µM (inactive) | 53.5 | 80.9 µM (inactive) | 27.6 µM (inactive) | 36.1 µM (inactive) | 24.4 µM (inactive) | 62.7 µM (inactive) | 49.4 µM (inactive) | 22.5 µM (inactive) | 17.1 µM (inactive) | 36 µM (inactive) | 33.3 µM (inactive) | 52.5 µM (inactive) | 47.9 µM (inactive) | 30.5 µM (inactive) | 36 µM (inactive)
2 | CCCCCCN1CCc2c(C)c(C#N)c3nc4ccccc4n3c21 | 42.9 µM (inactive) | 49.3 µM (inactive) | 16.5 µM (inactive) | 27.6 | 63.5 µM (inactive) | 14.5 µM (inactive) | 5.73 µM (inactive) | 17 µM (inactive) | 22.7 µM (inactive) | 25.9 µM (inactive) | – | > 100 µM (inactive) | 11.4 µM (inactive) | > 100 µM (inactive) | 80.4 µM (inactive) | 23.2 µM (inactive) | 12.4 µM (inactive) | 30.1 µM (inactive)
3 | CC1CCC2C(C)C3C(CC4C5CC=C6CC(OC7OC(CO)C(O)C(OC8OC(CO)C(O)C(O)C8O)C7OC7OC(C)C(O)C(O)C7O)CCC6(C)C5CCC43C)N2C1 (stereo not drawn) | 9.42 µM (inactive) | 18.1 µM (inactive) | 11.1 µM (inactive) | 17.3 | 4.67 µM (inactive) | 13.8 µM (inactive) | 13.6 µM (inactive) | 9.12 µM (inactive) | 10.7 µM (inactive) | 8.13 µM (inactive) | 19.9 µM (inactive) | 8.83 µM (inactive) | 18.1 µM (inactive) | 11.1 µM (inactive) | 10.5 µM (inactive) | 15.6 µM (inactive) | 16 µM (inactive) | 13.8 µM (inactive)
4 | COc1ccc(-c2coc3cc(O)ccc3c2=O)cc1 [FORMONONETIN] | > 100 µM (inactive) | > 100 µM (inactive) | > 100 µM (inactive) | > 100 | > 100 µM (inactive) | > 100 µM (inactive) | 11.3 µM (inactive) | > 100 µM (inactive) | > 100 µM (inactive) | – | – | > 100 µM (inactive) | > 100 µM (inactive) | > 100 µM (inactive) | > 100 µM (inactive) | > 100 µM (inactive) | > 100 µM (inactive) | > 100 µM (inactive)
5 | Cc1cn([C@@H]2O[C@H](CO)[C@@H](O)[C@@H]2O)c(=O)[nH]c1=O | > 1000 µM (inactive) | > 1000 µM (inactive) | > 1000 µM (inactive) | > 1000 | > 1000 µM (inactive) | > 1000 µM (inactive) | > 1000 µM (inactive) | > 1000 µM (inactive) | > 1000 µM (inactive) | > 1000 µM (inactive) | > 1000 µM (inactive) | > 1000 µM (inactive) | > 1000 µM (inactive) | > 1000 µM (inactive) | > 1000 µM (inactive) | > 1000 µM (inactive) | > 1000 µM (inactive) | > 1000 µM (inactive)
6 | CC(CSc1nc2c(c(=N)n1-c1ccccc1)c(=S)n(-c1ccccc1)c(=S)n2-c1ccccc1)CN(C)C (stereo not drawn) | 1.15 µM (inactive) | 1.32 µM (inactive) | 1.67 µM (inactive) | 1.55 | 1.86 µM (inactive) | 0.313 µM (active) | 1.87 µM (inactive) | 1.72 µM (inactive) | 1.91 µM (inactive) | 1.76 µM (inactive) | 0.335 µM (active) | 3.05 µM (inactive) | 2.05 µM (inactive) | 1.81 µM (inactive) | 4.65 µM (inactive) | 1.79 µM (inactive) | 1.82 µM (inactive) | 1.7 µM (inactive)
7 | Nc1ncnc2c1ccn2C/C=C/CO | > 100 µM (inactive) | > 100 µM (inactive) | > 100 µM (inactive) | > 100 | > 100 µM (inactive) | > 100 µM (inactive) | > 100 µM (inactive) | > 100 µM (inactive) | > 100 µM (inactive) | > 100 µM (inactive) | > 100 µM (inactive) | > 100 µM (inactive) | > 100 µM (inactive) | > 100 µM (inactive) | > 100 µM (inactive) | > 100 µM (inactive) | > 100 µM (inactive) | > 100 µM (inactive)
8 | COC1=C(C)C(=O)c2c(c(COC(N)=O)c3n2CC(OC(C)=O)C3OC(C)=O)C1=O (stereo not drawn) | < 0.0116 µM (active) | 0.111 µM (active) | 0.0204 µM (active) | 0.0126 | 0.0977 µM (active) | 0.0301 µM (active) | 0.2 µM (active) | 0.165 µM (active) | 0.126 µM (active) | 0.279 µM (active) | 0.0577 µM (active) | 0.0239 µM (active) | 0.133 µM (active) | 0.0944 µM (active) | 0.433 µM (active) | 0.0206 µM (active) | 0.0944 µM (active) | 0.0857 µM (active)
9 | CN1C(=O)[C@H](c2c[nH]c3ccccc23)[C@H](c2c[nH]c3ccccc23)C1=O | > 45.2 µM (inactive) | > 52.5 µM (inactive) | 25.8 µM (inactive) | 24.8 | 38.8 µM (inactive) | 29.9 µM (inactive) | 4.4 µM (inactive) | 26.4 µM (inactive) | 38.1 µM (inactive) | 5.32 µM (inactive) | 24.9 µM (inactive) | 21.7 µM (inactive) | 22 µM (inactive) | 44.2 µM (inactive) | 41.4 µM (inactive) | 37.1 µM (inactive) | 35.4 µM (inactive) | 22.2 µM (inactive)
10 | C[n+]1c2ccccc2n2c3ccccc3c(NCCCN3CCOCC3)c(C#N)c21 | 1.04 µM (active) | 1.27 µM (inactive) | 0.703 µM (active) | 4.65 | 2.4 µM (inactive) | 0.564 µM (active) | 0.804 µM (active) | 1.78 µM (inactive) | 1.04 µM (active) | 1.56 µM (inactive) | 0.726 µM (active) | 0.556 µM (active) | 2 µM (inactive) | 0.597 µM (active) | 3.08 µM (inactive) | 0.849 µM (active) | 1.52 µM (inactive) | 3.03 µM (inactive)
11 | Cc1c(C(=O)c2ccccc2)[n+]([O-])c2cc(Cl)c(Cl)cc2[n+]1[O-] | 15.8 µM (inactive) | 1.56 µM (inactive) | 13.5 µM (inactive) | 1.99 | 2.87 µM (inactive) | 10.7 µM (inactive) | 11.1 µM (inactive) | 11.9 µM (inactive) | 12.3 µM (inactive) | 4.11 µM (inactive) | 4.7 µM (inactive) | 17.2 µM (inactive) | 15.2 µM (inactive) | 15.2 µM (inactive) | 16.6 µM (inactive) | – | 15.6 µM (inactive) | 11.4 µM (inactive)
12 | O=Cc1c2c(cc3c1CC1(C3)Cc3cc4c(c(C=O)c3C1)CCC4)CCC2 | > 100 µM (inactive) | 36.6 µM (inactive) | 14.7 µM (inactive) | > 100 | 32.6 µM (inactive) | 36 µM (inactive) | 23.5 µM (inactive) | 45.6 µM (inactive) | 48.2 µM (inactive) | 20.9 µM (inactive) | 43.6 µM (inactive) | 37.5 µM (inactive) | 29.9 µM (inactive) | 65.9 µM (inactive) | – | – | 16.3 µM (inactive) | 22.3 µM (inactive)
13 | NC(=O)CC1OC(=O)Cc2cc3c(c(O)c21)C(=O)c1c(O)cccc1C3=O (stereo not drawn) | > 100 µM (inactive) | > 100 µM (inactive) | > 100 µM (inactive) | 71.4 | > 100 µM (inactive) | > 100 µM (inactive) | > 100 µM (inactive) | > 100 µM (inactive) | > 100 µM (inactive) | > 100 µM (inactive) | – | 92.7 µM (inactive) | 67.5 µM (inactive) | > 100 µM (inactive) | > 100 µM (inactive) | > 100 µM (inactive) | > 100 µM (inactive) | > 100 µM (inactive)
14 | C=C(C)[C@]12CC(C)C34OC(/C=C\C=C\CCCCCCCCC)(O[C@@H]1[C@@H]3[C@@H]1O[C@]1(CO)[C@@H](O)[C@]1(O)C(=O)C(C)=C[C@@H]41)O2 (stereo partly drawn) | 6.35 µM (inactive) | 0.01 µM (active) | 7.48 µM (inactive) | 12.4 | 13.1 µM (inactive) | 10.6 µM (inactive) | 0.01 µM (active) | 0.0223 µM (active) | 0.01 µM (active) | 9.93 µM (inactive) | 11.9 µM (inactive) | 0.01 µM (active) | 11.7 µM (inactive) | 2.42 µM (inactive) | 16.6 µM (inactive) | – | 15.5 µM (inactive) | 10 µM (inactive)
15 | CC(=N\N=C\c1ccccn1)/C(C)=N/N=C/c1ccccn1 | > 100 µM (inactive) | > 100 µM (inactive) | > 100 µM (inactive) | 60.8 | > 100 µM (inactive) | 89.7 µM (inactive) | > 100 µM (inactive) | 42.9 µM (inactive) | 51.6 µM (inactive) | 94.4 µM (inactive) | > 100 µM (inactive) | > 100 µM (inactive) | 98.4 µM (inactive) | > 100 µM (inactive) | > 100 µM (inactive) | > 100 µM (inactive) | > 100 µM (inactive) | –
16 | COc1ccc(OCC(=N/NC(=O)c2ccncc2)/N=C/c2cccnc2)cc1 | > 100 µM (inactive) | 83.9 µM (inactive) | > 100 µM (inactive) | 60.7 | 60.5 µM (inactive) | 73.1 µM (inactive) | > 100 µM (inactive) | 18.2 µM (inactive) | 17 µM (inactive) | 96.6 µM (inactive) | 67.6 µM (inactive) | 64.3 µM (inactive) | – | > 100 µM (inactive) | > 100 µM (inactive) | 53.1 µM (inactive) | > 100 µM (inactive) | 43.4 µM (inactive)
